≈ marks a conversion by molar mass, not a printed value. Read-outs that look alike come from different tables or passages of the source.

Series [1] has as its system Candida kefyr TIMM0301. Kind of series: Antimicrobial spectrum, liquid medium dilution method. The series is classed as cell-based. The conditions noted are these: for MIC: Kluyveromyces marxianus, Candida kefyr TIMM0301, YNBG medium. The procedure:
(§1) The TKR459 obtained was used to determine antimicrobial spectra against various microorganisms. The minimal inhibitory concentration (μg/ml) was measured by the liquid medium dilution method as the minimal concentration causing a substantially complete inhibition of micobial growth. The sub-minimal inhibitory concentration (μg/ml) was determined as the minimal concentration causing a partial inhibition of micobial growth and shown in the parentheses of Table 2. In the table, YNBG stands for a medium comprising 0.67% of yeast nitrogen base (manufactured by Difco) and 1.0% of glucose.

Series [2] concerns Candida albicans TIMM0136. The series is described as above. The series is classed as cell-based. The procedure: as §1
In series [3] the test system is Cryptococcus neoformans TIMM0354. Described as above. It counts as cell-based. The procedure: as §1
Series [4] deals with ICR mice. Kind of series: Toxicity after intraperitoneal administration to ICR mice. It counts as in vivo. The conditions noted are these: 100 mg/kg.
Series [5] in a line: Solubility in solvents. The series is classed as physicochemical.

`CC(O)(CCCCCCCCCCCCCC1OC(O)C(N)C(O)C1O)CCC(=O)O` (stereo not drawn) [TKR459]: the Antifungal activity entry in series [1] (Candida kefyr, summary of Table 2) is “active”; in series [2] (Candida albicans, summary of Table 2), “active”; in series [3] (Cryptococcus neoformans, summary of Table 2), “active”. In addition, the MIC in series [1] (minimal concentration causing partial inhibition of growth, read-out: Sub-minimal inhibitory concentration (in parentheses)) came to 0.39 µg/mL (≈ 0.871 µM); in series [1] (substantially complete inhibition of growth, read-out: Minimal inhibitory concentration), 0.78 µg/mL (≈ 1.74 µM); in series [2] (Candida albicans TIMM0136, YNBG medium, substantially complete inhibition of growth, read-out: Minimal inhibitory concentration) it was 0.78 µg/mL (≈ 1.74 µM); in series [3] (Cryptococcus neoformans TIMM0354, YNBG medium, substantially complete inhibition of growth, read-out: Minimal inhibitory concentration), 3.13 µg/mL (≈ 6.99 µM). Moreover, the Toxic signs entry in series [4] is given as “no toxic signs”. Further, the Solubility in chloroform result in series [5] (chloroform) is on record as “sparingly soluble”. Also, the Solubility in hexane result in series [5] (hexane) is on record as “sparingly soluble”. Moreover, the Solubility in methanol result in series [5] (methanol) is reported as “soluble”. Besides, the Solubility in water entry in series [5] (water) is “soluble”.
